Measured values reported in patent US11800869B2, “Use of 6-oxo-1,4,5,6-tetrahydropyridazine-3-carboxylic acid, 1-methyl 6-oxo-1,4,5,6-tetrahydropyridazine-3-carboxylic acid and 1-alkyl-6-oxo-1,4,5,6-tetrahydropyridazine-3-carboxylic acid for improving growth performance in plants” (Advanced Crop Chem LLP, priority 2020, dated 2023).

Tests used:
Format in all cases: in vivo
Corn = experiment: Seed treatment plus foliar spray, root and shoot biomass and emergence, corn (Example 2)
Protocol: Winter wheat variety AWC 13 seeds were treated with either 6-oxo-1,4,5,6-tetrahydropyridazine-3-carboxylic acid (THP) or 1-methyl 6-oxo-1,4,5,6 tetrahydropyridazine-3-carboxylic acid (MTHP) at an effective rate of 10g diluted in 2 L water plus 0.25% Nouryon wetter and applied to 1 ton of seed. These seed were planted in coarse river sand and grown in a greenhouse under ambient light at the greenhouse at 21° C. Plants were irrigated every other day with water containing 50% strength Hoaglands solution. Plants were assessed for emergence and biomass accumulation 30 days after planting. The plants from seeds treated with 6-oxo-1,4,5,6-tetrahydropyridizin-3-carboxylic acid or 1-methyl 6-oxo-1,4,5,6 tetrahydropyridazine-3-carboxylic acid had larger root biomasses (0.83, 0.85 g, dry weight/plant) compared with plants from untreated seeds (0.65 g dry weight/plant). Wheat, corn and pepper seeds were treated with 6-oxo-1,4,5,6-tetrahydropyridizine-3-carboxylic acid (THP) using the same methodology and growth conditions as described in example 1 and the resulting plants were also treated with a light foliar cover spray using an electric hand-held sprayer. (100 g in 200 L water plus 0.25% Nouryon wetter) of 6-oxo-1,4,5,6 tetrahydropyridazine-3-carboxylic acid (30 days post emergence (wheat at Zadoks GS 14 (see FIG. 1), maize at V2, Pepper at 3-4 leaf stage) and then assessed for root and shoot biomass 45 days later. At 75 days post planting the plants were assessed for root and shoot biomass as measured with dry weight.

Wheat seeds = experiment: Wheat seed treatment, seedling emergence at two temperatures (Example 15); details: 10 g/ton of seeds
Protocol: Wheat seeds were treated with 6-oxo-1,4,5,6-tetrahydropyridizin-3-carboxylic acid at two different temperature regimes to investigate the affect on germination. Soil temperature impacts the percentage of seeds germinating and how fast seedlings emerge from the soil. Each of these parameters influences how well the plants develop and ultimately crop yield. […] Wheat seeds were treated with 6-oxo-1,4,5,6 tetrahydropyridazine-3-carboxylic acid (THP) at a rate of 10 g/ton of seeds in accordance with the methodology of example 1. Seeds were planted in 12″×12″ germination trays in a 1″ grid, 100 seeds per tray. Growth media was coarse river sand. Additionally, each cell in the grid received one granule of Osmacote approximately above where the seed was planted. Trays were irrigated every day. The seeds were then allowed to germinate at controlled environment chambers at either 10C (50F) or 20C (68 F) to examine the effects at different temperatures. The number of seedlings emerged was tracked daily.

wheat seedlings = experiment: Foliar treatment of wheat seedlings, recovery from drought stress (Example 18); set-up: dose or concentration left out as unconfirmed; details: Drought stressed 10 days then 16 days regrowth
Protocol: Sets of wheat seedlings were given two foliar treatments with 6-oxo-1,4,5,6-tetrahydropyridazine-3-carboxylic acid to examine seedling recovery from drought stress. […] Seedlings were given two foliar treatments: the first at Zadoks GS 12 and at Zadoks GS 14 (FIG. 1). The plants were grown in a greenhouse and fed a standard plant nutrient solution. The plants were drought stressed for 10 days after which water and nutrients were resumed and the plants were allowed to grow for 16 days.

[1] = system: Soybean seeds, cv. Viking; experiment: Soybean seed treatment, root nodulation by Bradyrhizobium japonicum (Example 19); details: seed treatment 0.1 mM; greenhouse 75° F; 4 weeks after planting; untreated 655.8 mg
Protocol: Soybean seed were treated with 6-oxo-1,4,5,6 tetrahydropyridazine-3-carboxylic acid to examine the effect on root nodulation by a nitrogen fixing bacterium.
Soybean seeds, cv. Viking, were treated with 6-oxo-1,4,5,6 tetrahydropyridazine-3-carboxylic acid (0.1 mM) and the resulting seedlings were grown in a greenhouse at 75° F. under natural light during a winter season. The extent of root nodulation by Bradyrhizobium japonicum, a nitrogen fixing bacterium was determined 4 weeks after planting. Plants from the untreated seeds averaged 655.8 mg of nodules per plant versus 763.7 mg for the plants from treated seeds.

[2] = system: wheat plants (Variety Skyfall); experiment: Foliar treatment of greenhouse grown wheat, foliar and root biomass (Example 4); details: foliar treatment, 30 days later, Zadocks growth stage 22-24
Protocol: Wheat, corn and pepper seeds were treated with 6-oxo-1,4,5,6-tetrahydropyridizine-3-carboxylic acid (THP) using the same methodology and growth conditions as described in example 1 and the resulting plants were also treated with a light foliar cover spray using an electric hand-held sprayer. (100 g in 200 L water plus 0.25% Nouryon wetter) of 6-oxo-1,4,5,6 tetrahydropyridazine-3-carboxylic acid (30 days post emergence (wheat at Zadoks GS 14 (see FIG. 1), maize at V2, Pepper at 3-4 leaf stage) and then assessed for root and shoot biomass 45 days later. At 75 days post planting the plants were assessed for root and shoot biomass as measured with dry weight. Greenhouse grown wheat plants (Variety […]) were given foliar treatment of 1-methyl 6-oxo-1,4,5,6 tetrahydropyridazine-3-carboxylic acid (MTHP) or 6-oxo-1,4,5,6 tetrahydropyridazine-3-carboxylic acid (THP), utilizing the same methodology as in example 2. Foliar and root biomass were determined 30 days later at Zadocks growth stage 22-24.

[3] = system: wheat seedlings (Var. VitPro); experiment: Foliar treatment of wheat seedlings, number of tillers (Example 13); details: counted at Zadoks GS 15, untreated 3.7
Protocol: Wheat seedlings were given foliar treatments with a range of concentrations of 6-oxo-1,4,5,6 tetrahydropyridazine-3-carboxylic acid and the seedlings were grown and the numbers of tillers each plant produced was monitored as shown in Table 4. The number of tillers is considered positively related to grain yield. Sets of wheat seedlings (Var. VitPro) were given foliar treatments of 6-oxo-1,4,5,6 tetrahydropyridazine-3-carboxylic acid at concentrations of 0.1 mM, 0.01 mM or 0.001 mM *in a standard nutrient solution. Seedlings were given one foliar treatment at Zadoks GS 12 (FIG. 1); the plants grown in a greenhouse and fed a standard plant nutrient solution. The untreated control plants were sprayed with the nutrient solution containing sodium dodecyl sulfate, 0.1% and glycerol 1.2%. The number of tillers for each plant were counted at Zadoks GS 15 (FIG. 1) and the average number of tillers per plant calculated.

[4] = seed treatment plus foliar spray 100 g in 200 L, 75 days post planting

## O=C1CCC(C(=O)O)=NN1 [THP, 6-oxo-1,4,5,6 tetrahydropyridazine-3-carboxylic acid]
Corn; [4]
  Root Dry Weight, % Difference vs Untreated: 8%
  Shoot Dry Weight, % Difference vs Untreated: 3%
Corn; seed treatment, % Emergence at 10 days post planting
  Emergence, % Difference vs Untreated: 11%
Wheat seeds; 10 C., 5 days after planting
  % Emergence: 0%
Wheat seeds; 10 C., 6 days after planting
  % Emergence: 0%
Wheat seeds; 10 C., 7 days after planting
  % Emergence: 11%
Wheat seeds; 10 C., 8 days after planting
  % Emergence: 19%
Wheat seeds; 10 C., 9 days after planting
  % Emergence: 27%
Wheat seeds; 10 C., 10 days after planting
  % Emergence: 60%
Wheat seeds; 10 C., 11 days after planting
  % Emergence: 68%
Wheat seeds; 20 C., 5 days after planting
  % Emergence: 14%
Wheat seeds; 20 C., 6 days after planting
  % Emergence: 48%
Wheat seeds; 20 C., 7 days after planting
  % Emergence: 80%
Wheat seeds; 20 C., 8 days after planting
  % Emergence: 100%
Wheat seeds; 20 C., 9 days after planting
  % Emergence: 100%
Wheat seeds; 20 C., 10 days after planting
  % Emergence: 100%
Wheat seeds; 20 C., 11 days after planting
  % Emergence: 100%
Wheat seedlings; untreated drought stressed 7.1, normal water 5.4
  Number of seed heads, avg.: 8.3
Wheat seedlings; untreated drought stressed 28.2, normal water 32.3
  Total foliar fresh wt., avg.: 33.4 g
[1]
  nodules per plant: 763.7 mg
[2]; Con 0.55
  Dry Weight Shoot: 0.74 g
[2]; Con 1.03
  Dry Weight Root: 1.45 g
[3]; foliar treatment 0.001 mM at Zadoks GS 12
  Tillers per plant, average: 4.1
[3]; foliar treatment 0.01 mM at Zadoks GS 12
  Tillers per plant, average: 9.5
[3]; foliar treatment 0.1 mM at Zadoks GS 12
  Tillers per plant, average: 7.4
